The text below walks through data of patent US4393219A, “Salt of chlorhexidine” (Maruishi Pharmaceutical Co., Ltd., priority 1981, dated 1983).

A word on the MIC: it is the lowest concentration that inhibits growth of the organism. The LD50 is the dose at which mortality reaches 50%. Low values mean greater toxicity, high ones lower toxicity.

Converted amounts (≈) assume the structure as drawn. Structures can show the parent of a compound that is named as a salt. Where two headings read alike, the source gives them in different places.

The conditions of data set [1]: prior art, cited from earlier work; for solubility in water and alcohols: water and alcohols such as methanol and ethanol, in words.
In data set [2] the test system is Pseudomonas aeruginosa IID 1117. Kind of data set: Minimum inhibitory concentration, Pseudomonas aeruginosa. The class given is cell-based. The conditions noted are these: trypticase soy broth (BBL), heart infusion agar; for Minimum inhibitory concentration: Ps. aeruginosa. On the procedure: Pseudomonas aeruginosa IID 1117
(§1) The experiment was conducted according to the guide method which has been once revised and re-published by Japan Chemotherapy Association by using trypticase soy broth (BBL) as an incubation medium and heart infusion agar as a medium for determining susceptibility.

The test system of data set [3] is Serratia marcescens IFO 12648. Kind of data set: Minimum inhibitory concentration, Serratia marcescens. The class given is cell-based. The conditions noted are these: S. marcescens, trypticase soy broth (BBL), heart infusion agar; for MIC: Serratia marcescens, IFO12648. On the procedure: Serratia marcescens IFO 12648
as §1

For data set [4], the system named is Flavobacterium menigosepticum RIMD 0614002. Kind of data set: Minimum inhibitory concentration, Flavobacterium menigosepticum. As to conditions: trypticase soy broth (BBL), heart infusion agar; for Minimum inhibitory concentration: F. menigosepticum. The class given is cell-based. On the procedure:
(1) Strains employed: Flavobacterium menigosepticum RIMD 0614002 (2) Method: The experiment was conducted according to the guide method which has been once revised and re-published by Japan Chemotherapy Association by using trypticase soy broth (BBL) as an incubation medium and heart infusion agar as a medium for determining susceptibility.

In data set [5] the test system is Proteus vulgaris IFO 3045. The data set is described as follows: Minimum inhibitory concentration, Proteus vulgaris. Type of data set: cell-based. As to conditions: trypticase soy broth (BBL), heart infusion agar; for MIC: Proteus vulgaris, IFO3045, P. vulgaris. The procedure:
Proteus vulgaris IFO 3045
as §1

Data set [6] relates to Acinetobacter anitratus RIMD 0102002. The data set is described as follows: Minimum inhibitory concentration, Acinetobacter anitratus. Type of data set: cell-based. The conditions noted are these: trypticase soy broth (BBL), heart infusion agar; for MIC: Acinetobacter calcoaceticus, RIMD0102002, A. anitratus. The procedure:
Acinetobacter anitratus RIMD 0102002
as §1

A further data set in a line: Solubility. As to conditions: in words. Type of data set: physicochemical.
Another data set can be described thus: LD50 in mice. As to conditions: mouse, in vivo, route not stated.
Data set [7] relates to A. anitratus, F. menigosepticum, P. vulgaris, Ps. aeruginosa, S. marcescens. Kind of data set: Antibiotic activity compared with chlorhexidine digluconate (five strains together). The class given is cell-based. On the procedure: as §1

Consider `[H]/N=C(\N/C(=N/[H])NCCCCCCNC(=N)NC(=N)Nc1ccc(Cl)cc1)Nc1ccc(Cl)cc1` [Chlorhexidine diacetate], for which, in data set [1], the “solubility in water and alcohols” value was “sparingly soluble”; the solubility in water is given as 1 g per 10,000 ml.
As to `[H]/N=C(\N/C(=N/[H])NCCCCCCNC(=N)NC(=N)Nc1ccc(Cl)cc1)Nc1ccc(Cl)cc1` [Chlorhexidine digluconate, chlorhexidine digluconate], the values for the Minimum inhibitory concentration in data set [2] and in data set [4] were 31.3 µg/mL and 125 µg/mL, respectively. The minimal inhibitory concentration (MIC) is 125 µg/mL in [3], 250 µg/mL in data set [5] and 62.5 µg/mL in [6]. For the same compound, the “solubility in water and alcohols” value in data set [1] was “superior solubility in water and alcohols”.
For `[H]/N=C(\N/C(=N/[H])NCCCCCCNC(=N)NC(=N)Nc1ccc(Cl)cc1)Nc1ccc(Cl)cc1` [Chlorhexidine dihydrochloride], in [1], the “solubility in water and alcohols” value was “sparingly soluble”; the solubility in water is on record as 1 g per 10,000 ml.
In the case of `[H]/N=C(\N/C(=N/[H])NCCCCCCNC(=N)NC(=N)Nc1ccc(Cl)cc1)Nc1ccc(Cl)cc1` [Chlorhexidine disulfate], in data set [1], the “solubility in water and alcohols” value is “sparingly soluble”; the solubility in water is on record as 1 g per 10,000 ml.
Take `O=C1CC[C@@H](C(=O)O)N1` [Pyrrolidone-carboxylic acid, 2-Pyrrolidone-5-carboxylic acid]: the minimum inhibitory concentration (MIC) was 4000 µg/mL (≈ 31 mM) in [2] (Pseudomonas aeruginosa, IID1117, Ps. aeruginosa); 4000 µg/mL (≈ 31 mM) in [3]; 4000 µg/mL (≈ 31 mM) in data set [4] (Flavobacterium, RIMD0614002, F. menigosepticum); 4000 µg/mL (≈ 31 mM) in data set [5]; 4000 µg/mL (≈ 31 mM) in [6].
With `[H]/N=C(\N/C(=N/[H])NCCCCCCNC(=N)NC(=N)Nc1ccc(Cl)cc1)Nc1ccc(Cl)cc1` [Salt of this invention, chlorhexidine di-2-pyrrolidone-5-carboxylate], the Minimum inhibitory concentration in data set [2] stood at 15.6 µg/mL; in data set [3], 125 µg/mL; in [4] it was 31.3 µg/mL; in data set [5] (P. vulgaris), 125 µg/mL; in data set [6] (A. anitratus), 31.3 µg/mL. For the same compound, in “Solubility” (acetone, chloroform and ether), the “solubility in acetone, chloroform and ether” value is “insoluble in acetone, chloroform and ether”. Also, in “Solubility” (water and alcohols), the “solubility in water and alcohols” value is “soluble in water and alcohols”. The compound further yielded an LD50 in “LD50 in mice” of around 2000 mg/kg. The antibiotic activity entry in data set [7] is given as “more potent antibiotic activity than the known chlorhexidine digluconate”.
